# “Also recorded” adds a separate entry of the source.
# What was measured:
# [1] = test system: neutrophil adhesion to TNFα-activated endothelium; experiment: Neutrophil adhesion assay on HUVEC monolayer; format: cell-based, human
# Protocol: (§1) A, Chemotaxis assay using neutrophils pretreated for 20 min at room temperature with 30 μM PD98059 or DMSO. Chemotaxis was stimulated by the presence of 10 nM fMLP, or 1 nM IL-8 in the lower chamber; medium alone served as a control (nil). The data represent one of three experiments, each performed in triplicate. ANOVA looking for an effect of PD98059 compared to DMSO on chemotaxis gave p=0.359. B, Confluent HUVEC monolayers were stimulated with TNFα for 4 h, with PD98059 or DMSO added in the final 30 min. The extent of neutrophil adhesion to the endothelium was determined using a standard adhesion assay. The data is presented as the percentage of neutrophil remaining adherent relative to that added (% adhesion). The results represent one of three experiments, each performed in triplicate. (p=0.238, t-test comparing DMSO+TNF with PD+TNF).
# Adhesion assays were performed as previously described (Gamble, J. R., Y. Khew-Goodall, and M. A. Vadas. 1993. J Immunol. 150:4494-4503) with the exception that neutrophils were used. […] After washing the cells were stained with Rose Bengal and total numbers of adherent neutrophils determined by densitometry. The number of adherent neutrophils was computed from a standard curve and expressed as a percentage of the neutrophils added. […]
# [2] = test system: neutrophil chemotaxis; experiment: Neutrophil chemotaxis assay (Transwells, no HUVEC monolayer); format: cell-based, human; conditions: 30 μM PD98059 vs DMSO
# Protocol: as §1
# Chemotaxis assays were performed using Transwells essentially as in the transmigration assay except that the HUVEC monolayer was omitted. In addition, instead of pre-coating the upper chamber with fibronectin, the lower chamber was pre-coated with gelatin to prevent adhesion of neutrophils. […] Neutrophils that had migrated through the filters after 1 hour incubation at 37° C. were counted. Counts are expressed as a percentage of the total number of cells added. […]
# [3] = test system: neutrophil transmigration across a confluent monolayer of cultured human umbilical vein endothelial cells (HUVEC); experiment: Neutrophil transmigration assay across HUVEC monolayer on Transwells; format: cell-based
# Protocol: FIG. 1 is a graphical representation of inhibitors that act on MEK inhibit neutrophil transmigration across endothelium. A, Confluent HUVEC monolayers plated (5×10^4 cells/well) on Transwells were either unstimulated or activated with TNFα (4 ng/ml) for 4 hours. Thirty min prior to the assay some monolayers were treated with PD98059 (45 μM) or DMSO control. Neutrophils (5×10^5 cells/well) were added with either PD98059 or DMSO. Transmigration was assayed across TNFα-activated endothelium (TNF) and unstimulated endothelium with (fMLP) or without (Nil) a gradient of 10 nM fMLP. The assays were carried out in triplicate and 1 representative of 5 experiments shown. An ANOVA was performed looking for an effect of PD98059 compared to DMSO on transmigration: in this experiment p<0.0001 and in the overall series p<0.0001. B, Endothelial monolayers were treated as in A, but the concentration of PD98059 was varied as indicated. The data are presented as percentage of transmigration relative to that across unstimulated endothelium. One representative experiment of 7, each performed in triplicate, is shown. […] C, Endothelial cells on Transwells were left unstimulated or activated with TNFα as in A. Using the standard protocol, U0126 or its solvent, DMSO, were added to the monolayers 30 min prior to the experiment, and then added with the neutrophils. The results from one of two experiments, each performed in triplicate, is shown.
# This was performed as previously described using Transwells (6.5 mm diameter, […] pore size, Costar, Cambridge, Mass.) on 24 well culture trays (Smith et al., 1991, supra). Briefly, 5×10^4 HUVEC (between passages 2 and 5) were seeded in the upper chamber of each Transwell pre-coated with fibronectin (50 μg/mL for 30 minutes) and the cells were grown at 37° C. in 5% CO2 supplemented air to form a confluent monolayer. Neutrophils were added at 5×10^5 cells/well to the top chamber and where indicated chemoattractant was added to the lower chamber. The neutrophils were incubated at 37° C. for 1 h after which the number that had transmigrated into the lower chamber were collected and counted. Transmigration is expressed as a percentage of neutrophils added.
# Neutrophils were counted using one of two methods. Neutrophils retrieved from the lower compartment were either counted directly using a Coulter counter (Model ZF, Coulter, Herts, UK) or using an indirect colourimetric assay based on the conversion of a tetrazolium salt (MTT) to a formazan. Briefly, MTT (0.2 mg/ml, Sigma, St. Louis, […].) was added to the lower chamber and incubated for 4 hours at 37° C. The neutrophils were pelleted by centrifugation, the pellets resuspended in 200 μl acid isopropanol for an hour and the absorbance at 550 nm determined. A standard curve was constructed by serial dilution of the neutrophil preparation and the percentage of neutrophils transmigrating was calculated from this. The two methods used produced results of good fit (least squares fit regression analysis, >95% confidence) (data not shown).
# To identify signalling pathways in the endothelium that are essential for neutrophil transmigration, a screen for their effects on transmigration was carried out using pharmacological inhibitors of various signalling pathways (data not shown). The studies were performed using an in vitro model of neutrophil transmigration across a confluent monolayer of cultured human umbilical vein endothelial cells (HUVEC). Transmigration induced by an exogeneously added chemoattractant gradient and across TNFα-activated endothelium were both examined. […] In general, transmigration across TNFα-activated endothelium was inhibited to a greater extent than transmigration across a gradient of fMLP, with 70-80% inhibition of transmigration across TNFα-activated endothelium compared to only 40-50% inhibition of transmigration across an fMLP gradient. The inhibitory effects of PD98059 were also confirmed using a second MEK inhibitor, U0126 (FIG. 1C).
# [4] = test system: endothelial ERK (HUVEC); experiment: ERK activation assay (Western blot with phospho-ERK Ab); format: cell-based, human; conditions: for endothelial ERK activation by direct treatment of endothelial monolayer: HUVEC treated 15 min, no neutrophils, anti-phospho-ERK Western blot
# Protocol: A, Endothelial cells treated with 0.4 ng/ml TNFα (TNF), 30 ng/ml interleukin-4 (IL-4), 20 ng/ml oncostatin-M (OsM), 100 ng/ml PMA, or medium alone (Nil) for 15 minutes were assayed for Erk activation. Western blots shown were carried out using an anti-phospho-Erk Ab to detect activated Erk. Equal amounts of protein were loaded onto each lane. B, HUVEC were activated with TNFα for 4 hours or left unstimulated. After washing, either medium containing IL-8 (−) or neutrophils pre-treated with 1 nM IL-8 (+) were added at a 10:1 ratio of neutrophils to HUVEC and Erk activation assayed after 15 min at 37° C. Western blots shown were carried out using antibodies to phospho-Erk (upper panel) or reprobed with an anti-Erk polyclonal antibody after membranes were stripped (lower panel).
# A, Neutrophils, untreated or incubated with a β2 integrin functional blocking antibody, TS1/18 (50 μg/ml), for 20 min at room temperature were added to HUVEC in the presence of 1 nM fMLP for 15 min. HUVEC monolayers were then analysed for Erk activation by Western blotting with an anti-phospho-Erk Ab. B, Neutrophils, untreated or treated with the TS1/18 Ab as in A, were added to 96-well tissue culture dishes in the presence or absence of 1 nM fMLP and neutrophil adhesion was determined. The data is presented as the percentage of neutrophil remaining adherent relative to that added (% adhesion). By ANOVA comparing +/−TS1/18, p=0.0002, n=3.
# Resting HUVEC monolayers incubated with medium (nil), neutrophils (N) or neutrophil conditioned medium (CM), were analysed for Erk activation by Western blotting with an anti-phospho-Erk Ab. A, Neutrophils were stimulated for 15 minutes with 1 nM fMLP and then divided into two aliquots. One aliquot was centrifuged and the top 2/3 taken, carefully avoiding the cellular pellet, and added as conditioned medium (CM). The other aliquot was resuspended and 2/3 taken and added as the equivalent amount of neutrophil preparation (N). B. Conditioned media from neutrophils treated with 1 or 100 nM fMLP (prepared as in A) were added to HUVEC either undiluted (neat) or after diluting 1 in 3 (1/3) in medium. […]
# HUVEC (10^6 cells/well) were seeded in 6-well tissue culture dishes. […] Protein concentration was determined using the Bradford reagent (BioRad) and equal amounts of protein loaded onto a 7.5% SDS polyacrylamide gel. […] Total ERK present was determined by stripping the filter and re-blotting with an antibody against ERK 1/2.
# We therefore investigated whether ERK activation in the endothelium may be occurring under the conditions of the transmigration assay and which parameter(s) present in the assay system were responsible for its activation. Initially, the role of the inducers, TNFα and fMLP, used in the transmigration assay were assessed. […]
# [5] = test system: endothelial ERK (HUVEC); conditions: Xia et al. 1998; cited from earlier work
molecule,measurement,setting,value
COc1cccc(-c2cc(=O)c3ccccc3o2)c1N [PD98059],neutrophil adhesion to TNFα-activated endothelium in presence of inhibitor,"[1]; HUVEC stimulated with TNFα 4 h, inhibitor in final 30 min",not significantly affected
same,IL-8-stimulated neutrophil chemotaxis,[2]; 1 nM IL-8 in lower chamber,not significantly affected
same,fMLP-stimulated neutrophil chemotaxis,[2]; 10 nM fMLP in lower chamber,not significantly affected
same,effect on neutrophil transmigration across TNFα-activated endothelium,[3]; TNFα-activated HUVEC,inhibit in a dose-dependent manner
same,inhibition of transmigration across TNFα-activated endothelium,"[3]; TNFα-activated HUVEC, inhibitor added 30 min before and with neutrophils, 1 h",70-80%
same,effect on neutrophil transmigration induced by a chemoattractant (fMLP) gradient,[3]; unstimulated HUVEC,inhibit in a dose-dependent manner
same,inhibition of transmigration across an fMLP gradient,"[3]; unstimulated HUVEC, fMLP gradient (10 nM), 1 h",40-50%
N#CC(=C(/N)Sc1ccccc1N)/C(C#N)=C(\N)Sc1ccccc1N [U0126],effect on neutrophil transmigration across TNFα-activated endothelium,[3]; TNFα-activated HUVEC,inhibited transmigration across TNFα-activated endothelium to a similar extent as PD 98059
same,effect on neutrophil transmigration induced by a chemoattractant (fMLP) gradient,[3]; unstimulated HUVEC,showed greater potency against fMLP-driven transmigration
"CSCC[C@H](NC=O)C(=O)N[C@@H](CC(C)C)C(=O)N[C@@H](Cc1ccccc1)C(=O)O [fMLP, N-formyl-methionyl-leucinyl-phenylalanine]",endothelial ERK activation by direct treatment of endothelial monolayer,[4],did not activate endothelial ERK; also recorded: had no effect on endothelial ERK activation
same,induction of the ERK-activating factor in neutrophils,"[4]; conditioned media of stimulated neutrophils added to HUVEC, phospho-ERK read-out",induced the ERK-activating factor
TNFα,neutrophil adhesion to endothelium after treatment of the endothelium,"[1]; TNFα treatment of HUVEC, 4 h",stimulated neutrophil adhesion
same,fold activation of ERK (earlier observations),[5],1.5-2.0 fold
same,endothelial ERK activation by direct treatment of endothelial monolayer,[4],marginally activated ERK
"IL-4: interleukin-4 (protein, UniProt P05112 25-153, looked up) Interleukin-4: HKCDITLQEIIKTLNSLTEQKTLCTELTVTDIFAASKNTTEKETFCRAATVLRQFYSHHEKDTRCLGATAQQFHRHKQLIRFLKRLDRNLWGLAGLNSCPVKEANQSTLENFLERLKTIMREKYSKCSS",endothelial ERK activation by direct treatment of endothelial monolayer,[4],marginally activated ERK

# From US20070116687A1, “Method of modulating cellular transmigration and agents for use therein” (Medvet Science PTY, Ltd., priority 2003, published 2007)
